Experimental data: patent US20080182872A1, “USE OF ER-BETA SELECTIVE LIGANDS FOR TREATING ACUTE LUNG INJURIES” (WYETH, priority 2007, published 2008)

Experiments:
[1] = tested on: S. pneumoniae; test: Murine pneumonia model (invasive pneumococcal pneumonia); assay type: in vivo; details: 3 mg/kg IV at 24 and 48 hours after S. pneumoniae LD90 inoculation; moxifloxacin at 6, 24, 48 hours; all vehicle animals succumbed by 80 hours
Method: The effects of Compound 1 and Compound 2[2-(3-fluoro-4-hydroxyphenyl)-7-vinyl-1,3-benzoxazol-5-ol, or ERB-041] initially dosed at 3 mg/kg IV were being assessed on 7-day survival, microbial clearance and attenuation the acute and chronic pro-inflammatory effects of invasive pneumococcal pneumonia in lung tissue and distant organs in the murine pneumonia model. [Mohler J et al. Intensive Care Med 2003; 29:808-816.] Compound 1 and Compound 2 were tested to determine their ability to modulate the pathophysiology of severe infection and mortality from local and systemic inflammation from severe bacterial pneumonia. The compounds were delivered IV at 24 and 48 hours after inoculation with S. pneumoniae at an LD90 dose. Moxifloxacin was given at 6, 24 and 48 hours. The animals became bacteremic and develop a lethal pulmonary and systemic infection between 48 and 72 hours after the primary inoculation. All of the vehicle treated animals succumbed by 80 hours (3 days and 8 hours), while at 7 days 20% of the Compound 1—treated animals were alive and 60% of the Compound 2—treated animals survived.

[2] = tested on: lung tissue gene expression; test: Lung tissue gene expression in the mCLP model (Affymetrix array, Ingenuity Pathways Analysis); assay type: in vivo; details: mice subjected to CLP, intravenous treatment at CLP induction, lung tissue at 48 hours
Method: In order to further define the activity of Compound 1 in murine CLP, satellite groups of mice were treated intravenously at the time of CLP induction surgery with vehicle or Compound 1. An additional group of mice(surgical sham group) were subjected to the anesthesia and laparotomy, the cecum was manipulated but not ligated, and then the abdomen was closed. Because mCLP produces a progressive sepsis state, the animals become extremely ill and begin to succumb between 48-72 hours after mCLP. Thus, these animals were euthanized at 48 hours and lung tissue samples collected for gene expression analysis.
Messenger RNA was prepared by standard techniques, and the samples were processed on the Mouse430—2 Affymetrix commercial array, containing 45,037 non-control probe sets.
A heat map of differential gene expression was used to detect those gene transcripts with gene expression decreasing and those gene transcripts with gene expression increasing.
Using Ingenuity Pathways Analysis (IPA), 277 of the 522 probe sets were eligible for generating pathways. […] These pathways are identified in Table 4.

[3] = tested on: CLP-induced polymicrobial sepsis; test: Murine cecal ligation and puncture (CLP) model of polymicrobial sepsis; assay type: in vivo, BALB/c mice; details: score 0 normal to 4 marked diffuse inflammation and damage; oral dosing from time of CLP; euthanized at 48 hours; 8 animals; p<0.001 vs vehicle 3.08±0.74
Method: Murine cecal ligation and puncture is an accepted model of sepsis and was performed according to a previously published protocol [Opal et al., “evaluation of the safety of recombinant P-selectin glycoprotein ligand-immunoglobulin G fusion protein in experimental models of localized and systemic infection,” Shock 2001;15:285-90]. […] Acute lung injury is a documented component of this peritonitis-induced sepsis, and the model has been used to study the effects of other pharmaceutical agents on acute lung injury in sepsis [Tsujimoto et al. Shock 2005;23:39-44; and Singleton et al. Am J Physiol Regul Integr Comp Physiol (Jan. 18, 2007)].
Mice were euthanized at 48 hours following CLP and treatment with vehicle or Compound 1, both treatments having begun at the time of CLP.
Compound 1 was given at a range of doses orally at time 0, 24 and 48 hours following CLP in male and female BALB/c mice Survival, inflammatory markers, lung histopathology, and microbiologic parameters were assessed.
Multiple lung specimens were taken at necropsy from 8 vehicle- and 8 Compound 1—treated animals and evaluated by an independent pathologist unaware of the treatment group assignments. Treatment with Compound 1 reduced lung lesions (such as lung edema and lung inflammation) comparing to that with vehicle (Compound 1: 1.0±0.76 vs. vehicle: 3.08±0.74, p<0.001). […]

[4] = tested on: peripheral blood mononuclear cells (PBMC) gene transcripts and plasma chemokines; test: Plasma proteome and PBMC gene transcription in the IV live E. coli challenge model in baboon; assay type: in vivo
Method: The plasma proteome and gene transcription of peripheral blood mononuclear cells (PBMC) were investigated using the baboon model of sepsis to evaluate the effect of Compound 1 on progression of the disease. The study comprised three treatment groups—sham-treated, vehicle, and Compound 1—of three baboons each. Blood samples were drawn at multiple time points (0, 0.5, 1, 2, 3, 4, 6, 24, 48, and 168 hours) from each baboon. NuGen amplified RNA was prepared from peripheral blood mononuclear cells (PBMC) isolated from the 0, 1, 6, and 24 hour blood samples. RNA levels were then measured using Affymetrix rhesus monkey Genechips, which interrogated 52,865 transcripts. Of interest was whether expression levels of one or more of these transcripts differed among the three treatment groups over the course of the study.
Genechip data were processed using Affymetrix MAS 5 software to calculate detection p-values and signal (expression) values. Detection p-values were used to generate Affymetrix Absent, Marginal, or Present calls (p-value≧0.065: Absent; 0.05≦p-value<0.065: Marginal; p-value<0.05: Present). Signal values were normalized by the standard MAS 5 procedure.
This filter reduced the number of transcripts for further analysis to 43,181.
To adjust for differences among animals in baseline expression values, change from baseline expression was analyzed. Change from baseline expression values were calculated using log2-transformed signal values. For each transcript, the log2 signal value for an animal at the 0 hour (baseline) sampling time was subtracted from the log2 signal value for the same animal for each later sampling time to yield change from baseline values for 1, 6, and 24 hours for that animal.
Repeated-measures analysis of variance (ANOVA) was used to compare (log2-transformed) change from baseline expression values in the treatment groups across the sampling time points. The ANOVA model included terms for treatment group and sampling time, and a term for the interaction between treatment group and time. The model also included a compound symmetry covariance parameter to account for any within-animal correlation between measurements at different sampling times from the same animal. Separate ANOVAs were run for each transcript. Pairwise comparisons between treatment groups were computed for mean concentrations across all times as well as for each time point separated. These pairwise comparisons were based on two-sided t-tests, with the error term for the t-tests based on the overall error term from the ANOVA.
Due to the substantial number of statistical tests performed, false discovery rates (FDRs) were used to adjust the raw p-values from F-tests and t-tests for multiple comparisons. The FDRs were computed to control the family-wise error level by calculating FDRs across transcripts separately for each set of comparisons (e.g., each pairwise comparison at a particular sampling time).

[5] = tested on: E. coli; test: Intravenous E. coli challenge model of sepsis in baboons; assay type: in vivo; details: 10 mg/kg intravenously
Method: The intravenous E. coli infusion model of sepsis in baboons has been used for many years in sepsis research [Taylor F B Crit Care Med 2001 ;29:S78-89], and it has acute lung injury as one of its pathophysiological features [Sabharwal A K et al. Am J Resp Crit Care 1995; 151:758-67].
Compound 1 was given at a range of doses […] intravenously at a dose of 10 mg/kg in baboons 5 minutes before and then at 2, 24, 48, 72 and 96 hours following E. coli challenge. Survival, inflammatory markers, lung histopathology, and microbiologic parameters were assessed.
In the baboon study the lungs were examined at euthanasia of the animals when moribund or at the end of the 7 day experiment. Animals were assigned to vehicle and Compound 1 E. coli challenge. The lung specimens were evaluated by an independent pathologist unaware of treatment group assignments.

[6] = baboon plasma after E coli challenge
[7] = by 24 hours after E coli infusion, compared to vehicle treated animals

SMILES | animals alive (survival) at 7 days [1] | proinflammatory pathways (gene transcripts) in the lungs [2] | lung lesions (lung edema and lung inflammation) histopathology score [3] | plasma MCP-1 [4, 6] | plasma MIP-1 alpha [4, 6] | Hypoxia inducible factor-2 Alpha (HIF2-ALPHA) gene transcript in PBMC [4, 7] | Nuclear receptor subfamily 4, group A, member 3 (NR4A3) gene transcript in PBMC [4, 7] | early growth response 3 (EGR-3) gene transcript in PBMC [4, 7] | clinical signs of pulmonary injury (percent change in respiratory rate from baseline) [5] | hyaline membrane formation (histopathology) ([5]; lungs at euthanasia or day 7) | intrapulmonary hemorrhage (histopathology) ([5]; lungs at euthanasia or day 7)
N#Cc1cc(-c2ccc(O)c(F)c2)cc2ccc(O)cc12 [Compound 1, 3-(3-fluoro-4-hydroxy-phenyl)-7-hydroxy-naphthalene-1-carbonitrile] | 20% | significantly decreased | 1.0±0.76 | significantly reduced | significantly reduced | decreased | decreased | decreased | attenuated | absence of hyaline membrane formation | decreased intrapulmonary hemorrhage
C=Cc1cc(O)cc2nc(-c3ccc(O)c(F)c3)oc12 [Compound 2, 2-(3-fluoro-4-hydroxyphenyl)-7-vinyl-1,3-benzoxazol-5-ol] | 60% |  |  |  |  |  |  |  |  |  | 
